Reference: patent US20230093073A1, “METHODS AND COMPOSITIONS FOR COMMUNITY-BASED SCREENING OF POLYMICROBIAL INFECTIONS” (REGENTS OF THE UNIVERSITY OF MINNESOTA, priority 2020, published 2023)

Tests used:
[1] = tested on: P. aeruginosa and anaerobic bacteria capable of degrading mucins; settings: cited from earlier work
P. aeruginosa = assay: Antibiotic susceptibility testing (MIC) of P. aeruginosa isolates from CF sputum in LB; format: cell-based, Pseudomonas aeruginosa; settings: isolates from adult CF sputum, nutrient-rich LB, aerobic, 37° C., 24 h
Description: (§1) To further test this idea under clinically relevant conditions, sputum was collected from adult CF patients and isolated P. aeruginosa from each sample (FIG. 1B). Using a panel of widely used CF antibiotics (tobramycin, aztreonam, levofloxacin, piperacillin-tazobactam) and others lacking conventional activity against P. aeruginosa (trimethoprim-sulfamethoxazole, metronidazole), MICs for each isolate were determined under nutrient-rich conditions (akin to standard AST procedures). Concurrently, enrichment culturing was performed to isolate anaerobic mucin-degrading bacteria from each sample (10) and antibiotic MICs were similarly determined. Finally, small aliquots of remaining sputa were diluted in buffer and split between culture tubes containing mucin as the sole carbon source, 1% agarose, and one of the antibiotics listed above. Using these cultures in which P. aeruginosa and anaerobic mucin-degraders were co-dependent on mucin utilization, how co-operative growth affected antibiotic sensitivity relative to independent culture was interrogated.
Pseudomonas aeruginosa isolation. 100 μL of sputum was streaked onto Pseudomonas isolation agar and incubated at 37° C. for 72 hours. A single isolate from each sample was screened by PCR to confirm identity and stored in 30% glycerol at −80° C.
Antibiotic susceptibility testing. For anaerobic AST, 5 μL of enrichment culture was added to each well of microtiter plate containing MMM supplemented with gradients of seven antibiotics (aztreonam 0-500 μg/mL; doxycycline, 0-25 μg/mL; levofloxacin, 0-25 μg/mL; metronidazole, 0-25 μg/mL; piperacillin/tazobactam, 0-25 μg/mL; tobramycin, 0-500 μg/mL; trimethoprim/sulfamethoxazole, 0-25 μg/mL). Plates were wrapped in parafilm and incubated anaerobically at 37° C. for 72 h. For P. aeruginosa, isolates were grown in lysogeny broth (LB) to an OD600 of 0.5. 5 μL was then added to a similar plate containing LB as the base medium and incubated aerobically at 37° C. for 24 h. Plates were resuspended by pipetting and read spectrophotometrically at OD600 using a BioTek Synergy plate reader. MICs were determined based on the antibiotic concentration required to achieve a 90% reduction in culture density relative to antibiotic-free controls.

[2] = tested on: anaerobic mucin-degrading bacteria; assay: Anaerobic antibiotic susceptibility testing (MIC) of enrichment cultures from CF sputum in minimal mucin medium; format: cell-based; settings: MMM, 37° C., 72 h
Description: as §1
Anaerobic enrichment. […]
Antibiotic susceptibility testing. […] Plates were resuspended by pipetting and read spectrophotometrically at OD600 using a BioTek Synergy plate reader. MICs were determined based on the antibiotic concentration required to achieve a 90% reduction in culture density relative to antibiotic-free controls.

[3] = tested on: sputum bacterial communities; assay: Mucin co-culture of CF sputum bacterial communities, community growth by 16S rRNA gene qPCR; format: cell-based; settings: for whether presence of at least one antibiotic-susceptible population predicts community failure in co-culture: sputum co-culture vs individual MICs of P. aeruginosa and anaerobes; for effect on co-operative community growth (16S rRNA gene copies relative to untreated control, FIG. 2C): sputum co-culture, mucin sole carbon source, 1% agarose, 72 h, one fixed concentration per antibiotic
Description: as §1
It was assessed whether co-operative community growth (see FIG. 1A) would affect antibiotic susceptibility. Specifically, we hypothesized that the sensitivity of the overall sputum bacterial community would be set by the least tolerant among P. aeruginosa and anaerobic subpopulations. To test this hypothesis, total 16S rRNA gene copy number was used to quantify community growth in response to each antibiotic relative to untreated controls (FIG. 2C).
Co-culture. Under anaerobic conditions, 200 μL of homogenized sputum was placed into one of eight tubes to which a pre-determined concentration of each antibiotic was added (aztreonam, 100 μg/mL; doxycycline, 6.5 μg/mL; levofloxacin, 6.5 μg/mL; metronidazole, 3.5 μg/mL; piperacillin/tazobactam, 6.5 μg/mL; tobramycin, 500 μg/mL; trimethoprim/sulfamethoxazole, 3.5 μg/mL). […] 200 μL of molten 2% low melting point agarose in PBS was added to each tube and homogenized by pipetting. Each mixture was then added to 0.5 mL Pyrex culture tubes forming a gel upon cooling. Upon removal from the anaerobic chamber, tubes were incubated at 37° C. for 72 h and frozen at −80° C.
DNA extraction. Agar plugs were removed from the culture tubes, transferred to a Matrix E Lysing Tubes (MP Biomedicals) and two volumes of lysis buffer were added. Tubes were vortexed on a bead beater for 2×30 s, followed by centrifugation at 9,500×g for 1 min. Supernatant was transferred to a new tube, incubated at 75° C. for 10 min and returned to room temperature. Lysozyme and RNAse A were then added to final concentrations of 0.2 mg/mL and 50 μg/mL, respectively, and incubated for 1 h at 37° C. […], of 10% SDS and proteinase K (2 mg/mL) were added and incubated overnight at 55° C.
DNA was extracted by adding one volume of phenol:chloroform:iosoamyl alcohol (25:24:1) and vortexing to emulsify. Samples were centrifuged at 21,000×g for 20 min and the upper aqueous layer transferred to a new tube. One volume of chloroform:IAA was then added followed by centrifugation at 21,000×g for 15 min. The upper layer was transferred to a new tube. 3M sodium acetate (pH 5.2) was added and mixed gently, followed by the addition of 1 volume of isopropanol and 3 μL GlycoBlue. Samples were centrifuged for 20 min at 21,000×g and supernatant removed. Pellets were washed using 80% ethanol, air dried for ˜30 min and resuspended in 10 mM Tris (pH 8) prior to storage at −80° C.
qPCR. Community growth was estimated by quantifying 16S rRNA gene copies from co-culture DNA.

For `CC1(C)S[C@@H]2[C@H](NC(=O)[C@H](N)c3ccccc3)C(=O)N2[C@H]1C(=O)O` [ampicillin], the “P. aeruginosa growth in co-culture with mucin-degrading anaerobes” value ([1]; co-culture on mucins as sole carbon source, inhibition of anaerobic subpopulation) is listed as “constrained P. aeruginosa growth” and the “resistance of P. aeruginosa determined by standard AST” value ([1]; standard AST, monoculture) is listed as “high intrinsic resistance”.
In the case of `C[C@H]1[C@H](NC(=O)/C(=N\OC(C)(C)C(=O)O)c2csc(N)n2)C(=O)N1S(=O)(=O)O` [aztreonam], the “efficacy against P. aeruginosa isolates (MICs, FIG. 2A)” value (P. aeruginosa) is reported as “some isolates were resistant”, the “efficacy against anaerobic enrichments (MICs, FIG. 2B)” value [2] is reported as “variable efficacy” and the “growth of two aztreonam-resistant P. aeruginosa isolates in co-culture” value ([3]; co-culture with aztreonam-susceptible anaerobic mutualists, aztreonam 100 μg/mL) is reported as “restricted in co-culture”. The “whether presence of at least one antibiotic-susceptible population predicts community failure in co-culture” value [3] was “largely predictive of community failure”.
For `Cc1ncc([N+](=O)[O-])n1CCO` [metronidazole], the “efficacy against P. aeruginosa isolates (MICs, FIG. 2A)” value (P. aeruginosa) was “ineffective”, the “sputum community growth, patient 5” value ([3]; patient 5, both subpopulations independently resistant, metronidazole 3.5 μg/mL) was “robust” and the “effect on co-operative community growth (16S rRNA gene copies relative to untreated control, FIG. 2C)” value [3] was “striking effect on co-operative cultures”.
For `NC[C@H]1O[C@H](O[C@H]2[C@H](O)[C@@H](O[C@H]3O[C@H](CO)[C@@H](O)[C@H](N)[C@H]3O)[C@H](N)C[C@@H]2N)[C@H](N)C[C@@H]1O` [tobramycin], the “efficacy against P. aeruginosa isolates (MICs, FIG. 2A)” value (P. aeruginosa) was “broadly effective”, the “efficacy against anaerobic enrichments (MICs, FIG. 2B)” value [2] was “all anaerobic enrichments demonstrated resistance” and the “effect on co-operative community growth (16S rRNA gene copies relative to untreated control, FIG. 2C)” value [3] was “striking effect on co-operative cultures”.
For piperacillin-tazobactam, the “efficacy against P. aeruginosa isolates (MICs, FIG. 2A)” value (P. aeruginosa) was “some isolates were resistant” and the “whether presence of at least one antibiotic-susceptible population predicts community failure in co-culture” value [3] was “largely predictive of community failure”.
With trimethoprim-sulfamethoxazole the “efficacy against P. aeruginosa isolates (MICs, FIG. 2A)” value (P. aeruginosa) was “some isolates were resistant”, the “community growth, patients 3 and 4” value ([3]; patients 3 and 4, antibiotic predicted ineffective from individual MICs, T/S 3.5 μg/mL) was “surprisingly inhibited” and the “whether presence of at least one antibiotic-susceptible population predicts community failure in co-culture” value [3] was “largely predictive of community failure”. For the same compound, the “effect on co-operative community growth (16S rRNA gene copies relative to untreated control, FIG. 2C)” value [3] was “variable effects”.
